Assay results from patent US9156801B2, “2-substituted oleanolic acid derivative, method preparing for same, and application thereof” (HANGZHOU BENSHENG PHARMACEUTICAL CO., LTD., priority 2011, dated 2015).

Key:
H9 cell line = assay: leukemia cell growth inhibition, MTT; format: cell-based; settings: Homo sapiens
Text: (§1) Leukemia cell lines: leukemia cell lines: K562/adr (drug-resistant, chronic myeloid leukemia, CML), NB4 (acute promyelocytic leukemia, AML), Kasumi-1 (acute myeloid leukemia M2 type, AML-M2), Jurkat (acute lymphoblastic leukemia, ALL), all of which are donated by Cancer Research Institute of Zhejiang University, China; and H9 (acute lymphoblastic leukemia, ALL), which is purchased from China Center for Type Culture Collection (CCTCC).
(§2) Obtaining 6000 well-growing leukemia cells and inoculating them into wells of a 96-well cell culture plate. The culture medium is the 1640 cell culture medium containing 10% fetal bovine serum. After adding the 2-substituted oleanolic acid derivatives of different concentrations and mixing uniformly, placing the plate in a carbon dioxide cell incubator (5% CO2) at 37° C. and incubated for 72 hours. Then the relative number of viable cells is determined by MTT method. In this experiment, cell proliferation inhibition rate in control group (not treated with any compound) is set as 0%.

Jurkat cell line = assay: leukemia cell growth inhibition, MTT; format: cell-based; settings: Homo sapiens, 72 h
Text: as §1, §2

K562/adr cell line = assay: leukemia cell growth inhibition, MTT; format: cell-based; settings: Homo sapiens, 72 h
Text: as §1, §2

Kasumi-1 cell line = assay: leukemia cell growth inhibition, MTT; format: cell-based; settings: Homo sapiens
Text: as §1, §2

NB4 cell line = assay: leukemia cell growth inhibition, MTT; format: cell-based; settings: Homo sapiens, NB-4
Text: as §1, §2

RPMI8226 cell line = assay: multiple myeloma cell growth inhibition, MTT; format: cell-based; settings: Homo sapiens, RPMI-8226
Protocol: Multiple myeloma cell lines: RPMI8226 (multiple myeloma), purchased from Fuxiang Bio-tech Co. Ltd., Shanghai, China.
Obtaining 6000 well-growing cells as above and inoculating them into wells of a 96-well cell culture plate. The culture medium is the 1640 cell culture medium containing 10% fetal bovine serum. After adding the 2-substituted oleanolic acid derivatives of different concentrations and mixing uniformly, placing the plate in a carbon dioxide cell incubator (5% CO2) at 37° C. and incubated for 72 hours. Then the relative number of viable cells is determined by MTT method. In this experiment, cell proliferation inhibition rate in control group (not treated with any compound) is set as 0%.

Hep G2 cell line = assay: solid tumor cell growth inhibition, MTT; format: cell-based, human; settings: Homo sapiens
Protocol: (§3) Hep-2 (laryngeal carcinoma), A549 (human lung cancer), CaES-17 (esophageal cancer cell), PC-3 (prostate cancer), CNE (nasopharyngeal carcinoma cell), and SK-OV-3 (ovarian cancer cell), all of which are purchased from China Center For Type Culture Collection; RKO (human colon adenocarcinoma cell), MGC 803 (human gastric cancer cell), MG63 (osteosarcoma) and U87 MG (malignant glioma cell), all of which are purchased from Fuxiang Bio-tech Co. Ltd., Shanghai, China; PANC-1 (pancreatic cancer), Hep G2 (human liver cancer cell), Becap37 (human breast cancer cell), and Hela (human cervical cancer cell), all of which are donated by Cancer Research Institute of Zhejiang University, China.
(§4) Obtaining 4000 well-growing human solid tumor cells and inoculating them into wells of a 96-well cell culture plate. The culture medium is DMEM High Glucose cell culture medium containing 10% fetal bovine serum. The plate is placed in a carbon dioxide cell incubator (5% CO2) at 37° C. for 24 hours. After adding the 2-substituted oleanolic acid derivatives of different concentrations and mixing uniformly, the plate is placed in a carbon dioxide cell incubator (5% CO2) at 37° C. and incubated for 72 hours. Then the relative number of the living cells is determined by MTT method. In this experiment, the cell proliferation inhibition rate in control group (not treated with any compound) is set as 0%.

A549 cell line = assay: solid tumor cell growth inhibition, MTT; format: cell-based; settings: Homo sapiens
Protocol: as §3, §4

Becap37 cell line = assay: solid tumor cell growth inhibition, MTT; format: cell-based; settings: Homo sapiens
Protocol: as §3, §4

CNE cell line = assay: solid tumor cell growth inhibition, MTT; format: cell-based; settings: Homo sapiens, 72 h
Protocol: as §3, §4

CaES-17 cell line = assay: solid tumor cell growth inhibition, MTT; format: cell-based; settings: Homo sapiens, CaEs17
Protocol: as §3, §4

Hela cell line = assay: solid tumor cell growth inhibition, MTT; format: cell-based; settings: Homo sapiens, 72 h
Protocol: as §3, §4

Hep-2 cell line = assay: solid tumor cell growth inhibition, MTT; format: cell-based; settings: Homo sapiens
Protocol: as §3, §4

MG-63 cell line = assay: solid tumor cell growth inhibition, MTT; format: cell-based; settings: Homo sapiens
Protocol: as §3, §4

MGC 803 cell line = assay: solid tumor cell growth inhibition, MTT; format: cell-based; settings: Homo sapiens
Protocol: as §3, §4

PANC-1 cell line = assay: solid tumor cell growth inhibition, MTT; format: cell-based; settings: Homo sapiens
Protocol: as §3, §4

PC-3 cell line = assay: solid tumor cell growth inhibition, MTT; format: cell-based; settings: Homo sapiens
Protocol: as §3, §4

RKO cell line = assay: solid tumor cell growth inhibition, MTT; format: cell-based; settings: Homo sapiens, 72 h
Protocol: as §3, §4

SK-OV-3 cell line = assay: solid tumor cell growth inhibition, MTT; format: cell-based; settings: Homo sapiens
Protocol: as §3, §4

U87 MG cell line = assay: solid tumor cell growth inhibition, MTT; format: cell-based; settings: Homo sapiens, U-87 MG, 72 h
Protocol: as §3, §4

[1] = 16 μg/mL compound, read-out: IR (cell proliferation inhibition rate)

## COC(=O)[C@]12CCC(C)(C)CC1C1=CCC3[C@@]4(C)CC(C(=O)NC5CC5)C(=O)C(C)(C)C4CC[C@@]3(C)[C@]1(C)CC2 (stereo partly shown) [BS-OA-034]
H9 cell line; H9, 72 h
  IC50: > 16 µg/mL
H9 cell line; H9, 16 μg/mL compound, 72 h, read-out: IR (cell proliferation inhibition rate)
  inhibition at 16 µg/mL: 22.1%
Jurkat cell line; [1]
  inhibition at 16 µg/mL: -19.6%
Jurkat cell line
  IC50: > 16 µg/mL
K562/adr cell line; K562/Adr
  IC50: > 16 µg/mL
K562/adr cell line; K562/adr, 16 μg/mL compound, read-out: IR (cell proliferation inhibition rate)
  inhibition at 16 µg/mL: 25.3%
Kasumi-1 cell line; Kasumi-1, 16 μg/mL compound, 72 h, read-out: IR (cell proliferation inhibition rate)
  inhibition at 16 µg/mL: 22.6%
Kasumi-1 cell line; Kasumi-1, 72 h
  IC50: > 16 µg/mL
NB4 cell line; NB4, 16 μg/mL compound, 72 h, read-out: IR (cell proliferation inhibition rate)
  inhibition at 16 µg/mL: 22.3%
NB4 cell line; NB4, 72 h
  IC50: > 16 µg/mL
RPMI8226 cell line; RPMI8226, 16 μg/mL compound, 72 h, read-out: IR (cell proliferation inhibition rate)
  inhibition at 16 µg/mL: 15.5%
RPMI8226 cell line; RPMI8226, 72 h
  IC50: > 16 µg/mL
Hep G2 cell line; HepG2, 72 h, Hep G2, 16 μg/mL compound, 72 h, read-out: IR (cell proliferation inhibition rate)
  inhibition at 16 µg/mL: 8.9%
Hep G2 cell line; HepG2, Hep G2, 72 h
  IC50: > 16 µg/mL
A549 cell line; A549, 72 h
  IC50: > 16 µg/mL
A549 cell line; A549, 16 μg/mL compound, 72 h, read-out: IR (cell proliferation inhibition rate)
  inhibition at 16 µg/mL: 5.3%
Becap37 cell line; Becap37, 16 μg/mL compound, 72 h, read-out: IR (cell proliferation inhibition rate)
  inhibition at 16 µg/mL: -6.7%
Becap37 cell line; Becap37, 72 h
  IC50: > 16 µg/mL
CNE cell line; [1]
  inhibition at 16 µg/mL: 16.7%
CNE cell line
  IC50: > 16 µg/mL
CaES-17 cell line; CaES-17, 16 μg/mL compound, 72 h, read-out: IR (cell proliferation inhibition rate)
  inhibition at 16 µg/mL: -6.7%
CaES-17 cell line; CaES-17, 72 h
  IC50: > 16 µg/mL
Hela cell line; HeLa
  IC50: > 16 µg/mL
Hela cell line; Hela, 16 μg/mL compound, read-out: IR (cell proliferation inhibition rate)
  inhibition at 16 µg/mL: 0.6%
Hep-2 cell line; HEp-2, 72 h
  IC50: > 16 µg/mL
Hep-2 cell line; Hep-2, 16 μg/mL compound, 72 h, read-out: IR (cell proliferation inhibition rate)
  inhibition at 16 µg/mL: 5.4%
MG-63 cell line; MG-63, 72 h
  IC50: > 16 µg/mL
MG-63 cell line; MG-63, 16 μg/mL compound, 72 h, read-out: IR (cell proliferation inhibition rate)
  inhibition at 16 µg/mL: -5.4%
MGC 803 cell line; MGC 803, 16 μg/mL compound, 72 h, read-out: IR (cell proliferation inhibition rate)
  inhibition at 16 µg/mL: -3.2%
MGC 803 cell line; MGC 803, 72 h
  IC50: > 16 µg/mL
PANC-1 cell line; PANC-1, 72 h
  IC50: > 16 µg/mL
PANC-1 cell line; PANC-1, 16 μg/mL compound, 72 h, read-out: IR (cell proliferation inhibition rate)
  inhibition at 16 µg/mL: -9.9%
PC-3 cell line; PC-3, 72 h
  IC50: > 16 µg/mL
PC-3 cell line; PC-3, 16 μg/mL compound, 72 h, read-out: IR (cell proliferation inhibition rate)
  inhibition at 16 µg/mL: 19%
RKO cell line; [1]
  inhibition at 16 µg/mL: -41%
RKO cell line
  IC50: > 16 µg/mL
SK-OV-3 cell line; SK-OV-3, 72 h
  IC50: > 16 µg/mL
SK-OV-3 cell line; SK-OV-3, 16 μg/mL compound, 72 h, read-out: IR (cell proliferation inhibition rate)
  inhibition at 16 µg/mL: 21.3%
U87 MG cell line; [1]
  inhibition at 16 µg/mL: 18.2%
U87 MG cell line
  IC50: > 16 µg/mL
